Assay results published in ChEMBL document CHEMBL3885881, “DrugMatrix”.

Organism: Rattus norvegicus
Assay: DrugMatrix - Regimen: Daily Repeat
Type: toxicity, organism-based, Sprague-Dawley
Design: regimen Daily Repeat, gender Male, age 6-8 weeks
Conditions: in vivo, po, route oral GAVAGE; for ALANINE AMINOTRANSFERASE / ALKALINE PHOSPHATASE / ASPARTATE AMINOTRANSFERASE / BLOOD UREA NITROGEN / CARBON DIOXIDE / CHLORIDE / CHOLESTEROL / CREATINE PHOSPHOKINASE / CREATININE / GLUCOSE / LACTATE DEHYDROGENASE / LIPASE / PHOSPHORUS / POTASSIUM / SODIUM / TOTAL BILIRUBIN / URIC ACID / ALBUMIN / TOTAL PROTEIN: tissue Plasma
[1] = 0 mg/kg, 120 h, tissue Blood, dose level Control, time 5 day, vehicle 100 % WATER
[2] = 0 mg/kg, 120 h, dose level Control, time 5 day, vehicle 100 % SALINE
[3] = 0 mg/kg, 120 h, dose level Control, time 5 day, vehicle 100 % WATER
[4] = 300 mg/kg, 72 h, tissue Blood, dose level M2, time 3 day, vehicle 100 % SALINE
[5] = 300 mg/kg, 72 h, dose level M2, time 3 day, vehicle 100 % SALINE
[6] = 300 mg/kg, 120 h, tissue Blood, dose level M2, time 5 day, vehicle 100 % SALINE

Structure (SMILES): CCCc1nn(C)c2c(=O)[nH]c(-c3cc(S(=O)(=O)N4CCN(C)CC4)ccc3OCC)nc12
- EOSINOPHIL [1]: 0%
- ERYTHROCYTE COUNT [1]: 5.49 x10E6/uL
- HEMATOCRIT [1]: 34.63%
- HEMOGLOBIN [1]: 13.72 G/DL
- LEUKOCYTE COUNT [1]: 11.32 x10E3/uL
- LYMPHOCYTE [1]: 92.67%
- MEAN CORPUSCULAR HEMOGLOBIN [1]: 24.97 pg
- MEAN CORPUSCULAR HEMOGLOBIN CONCENTRATION [1]: 39.57 G/DL
- MEAN CORPUSCULAR VOLUME [1]: 63.05 fL
- MONOCYTE [1]: 0.17%
- NEUTROPHIL [1]: 7.17%
- NUCLEATED RED BLOOD CELLS [1]: 0.17 /100WBC
- PLATELET COUNT [1]: 802 x10E3/uL
- ALANINE AMINOTRANSFERASE [2]: 49.33 u/L
- ALKALINE PHOSPHATASE [2]: 300.33 u/L
- ASPARTATE AMINOTRANSFERASE [2]: 83.5 u/L
- BLOOD UREA NITROGEN [2]: 16 mg/dL
- CARBON DIOXIDE [2]: 29.67 mmol/L
- CHLORIDE [2]: 100.5 MEQ/L
- CHOLESTEROL [2]: 74.33 mg/dL
- CREATINE PHOSPHOKINASE [2]: 489.67 u/L
- CREATININE [2]: 0.35 mg/dL
- GLUCOSE [2]: 151 mg/dL
- LACTATE DEHYDROGENASE [2]: 133.67 u/L
- LIPASE [2]: 11.17 u/L
- PHOSPHORUS [2]: 10.88 mg/dL
- POTASSIUM [2]: 5.5 MEQ/L
- SODIUM [2]: 145.7 MEQ/L
- TOTAL BILIRUBIN [2]: 0.2 mg/dL
- URIC ACID [2]: 0.68 mg/dL
- ALANINE AMINOTRANSFERASE [3]: 50.5 u/L
- ALBUMIN [3]: 4.07 G/DL
- ALKALINE PHOSPHATASE [3]: 336.83 u/L
- ASPARTATE AMINOTRANSFERASE [3]: 81 u/L
- BLOOD UREA NITROGEN [3]: 14.17 mg/dL
- CARBON DIOXIDE [3]: 32 mmol/L
- CHLORIDE [3]: 98.33 MEQ/L
- CHOLESTEROL [3]: 69.17 mg/dL
- CREATINE PHOSPHOKINASE [3]: 253.33 u/L
- CREATININE [3]: 0.13 mg/dL
- GLUCOSE [3]: 153.67 mg/dL
- LACTATE DEHYDROGENASE [3]: 157 u/L
- LIPASE [3]: 9 u/L
- PHOSPHORUS [3]: 10.78 mg/dL
- POTASSIUM [3]: 6.11 MEQ/L
- SODIUM [3]: 144.57 MEQ/L
- TOTAL BILIRUBIN [3]: 0.15 mg/dL
- TOTAL PROTEIN [3]: 6.05 G/DL
- URIC ACID [3]: 0.73 mg/dL
- ABSOLUTE BASOPHIL [4]: 0 CELLS/uL
- ABSOLUTE EOSINOPHIL [4]: 110.67 CELLS/uL
- ABSOLUTE LYMPHOCYTE [4]: 12663.33 CELLS/uL
- ABSOLUTE MONOCYTE [4]: 138 CELLS/uL
- ABSOLUTE SEGMENTED NEUTROPHIL [4]: 821.33 CELLS/uL
- BASOPHIL [4]: 0%
- EOSINOPHIL [4]: 0.67%
- ERYTHROCYTE COUNT [4]: 5.21 x10E6/uL
- HEMATOCRIT [4]: 34.03%
- HEMOGLOBIN [4]: 13.07 G/DL
- LEUKOCYTE COUNT [4]: 13.73 x10E3/uL
- LYMPHOCYTE [4]: 92.67%
- MEAN CORPUSCULAR HEMOGLOBIN [4]: 25.03 pg
- MEAN CORPUSCULAR HEMOGLOBIN CONCENTRATION [4]: 38.43 G/DL
- MEAN CORPUSCULAR VOLUME [4]: 65.3 fL
- MONOCYTE [4]: 0.67%
- NEUTROPHIL [4]: 6%
- NUCLEATED RED BLOOD CELLS [4]: 0.33 /100WBC
- PLATELET COUNT [4]: 1148.67 x10E3/uL
- ALANINE AMINOTRANSFERASE [5]: 45.67 u/L
- ALBUMIN [5]: 3.8 G/DL
- ALKALINE PHOSPHATASE [5]: 335 u/L
- ASPARTATE AMINOTRANSFERASE [5]: 71.67 u/L
- BLOOD UREA NITROGEN [5]: 13.33 mg/dL
- CARBON DIOXIDE [5]: 27.67 mmol/L
- CHLORIDE [5]: 100 MEQ/L
- CHOLESTEROL [5]: 70.67 mg/dL
- CREATINE PHOSPHOKINASE [5]: 284 u/L
- CREATININE [5]: 0.2 mg/dL
- GLUCOSE [5]: 154 mg/dL
- LACTATE DEHYDROGENASE [5]: 142.33 u/L
- LIPASE [5]: 12.33 u/L
- PHOSPHORUS [5]: 11.37 mg/dL
- POTASSIUM [5]: 5.84 MEQ/L
- SODIUM [5]: 144.75 MEQ/L
- TOTAL BILIRUBIN [5]: 0.13 mg/dL
- TOTAL PROTEIN [5]: 5.13 G/DL
- URIC ACID [5]: 0.97 mg/dL
- ABSOLUTE BASOPHIL [6]: 0 CELLS/uL
- ABSOLUTE EOSINOPHIL [6]: 0 CELLS/uL
- ABSOLUTE LYMPHOCYTE [6]: 10278 CELLS/uL
- ABSOLUTE MONOCYTE [6]: 0 CELLS/uL
- ABSOLUTE SEGMENTED NEUTROPHIL [6]: 955.33 CELLS/uL
